In patent publication US10774049B2, “PU.1 inhibitors” (Albert Einstein College of Medicine, priority 2016, dated 2020):
Structures can show the parent of a compound that is named as a salt.

Tests used:
LSK cells = test: Colony assay of Lin−Sca1+c-Kit+ (LSK) cells from wildtype mice; type: cell-based
Description: FIG. 5A-5F. PU.1 inhibitors decrease the granulo-monocytic potential of hematopoietic stem and progenitor cells, which is rapidly reversible. (A-C) Lin-Sca1+c-Kit+(LSK) cells were plated in semi-solid media containing PU.1 inhibitors. (A) Number of colony-forming unit granulocyte (CFU-G), monocyte (CFU-M), granulo/monocyte (CFU-GM), granulo/erythrocyte/monocyte/megakaryocyte (CFU-GEMM), burst or colony forming unit erythroid (B/CFU-E) and immature colonies after treatment. Detailed histograms of CFU-GM, CFU-G and CFU-M numbers are shown. Data represent the means±SD of 3 independent experiments. (B) Cells coming from colony assays after vehicle or DB2313 treatment. Cells were cytospun and stained with May-Grünwald Giemsa. Scale bar is equal to 20 μm. (C) FACS analysis showing the percentage of CD11b+Gr1−, CD11b+Gr1+, CD11b−Gr1+, CD41+Ter119−, CD41+Ter119+, CD41−Ter119+ populations after colony assays. Data represent the means±SD of 4 independent experiments. (D,E) Cells coming from colony assays treated with DB2313 were replated in the presence (+DB2313) or in the absence of DB2313 (−DB2313) and the percentage of CD11b+Gr1−, CD11b+Gr1+ cells was assessed one week later after culture in semi-solid media. (D) Representative FACS plots (E) Percentage of CD11b+Gr1− and CD11b+Gr1+ populations. Data represent the means±SD of 3 independent experiments; fold change compared to replating with DB2313 is shown. (F) Serial replating assay with D2313 continuous treatment (n=3). Data represent the means±SD of technical triplicate from one representative experiment. *P<0.05, **P<0.01, ***P<0.001,
In order to determine the effect of our PU.1 inhibitors on normal hematopoietic differentiation, we sorted immature Lin^−Sca1^+c-Kit^+ (LSK) cells from wildtype mice and studied their clonogenic potential following treatment with either DB1976, DB2115, or DB2313. […] Overall, the numbers of viable cells per colony were reduced upon PU.1 inhibitor treatment, again consistent with an effect of PU.1 inhibition on more mature, differentiating cells. […]

[1] = tested on: PU.1 targets Csf1r, Junb, PU.1, E2f1; test: Quantitative RT-PCR of PU.1 target transcripts in PU.1 URE−/− AML cells; type: cell-based, murine
Description: FIG. 3A-3G. Novel inhibitors show on-target PU.1 inhibitory activity. (A) Quantitative RT-PCR analysis of Csf1r, Junb, Sfpi1, E2f1 expression after 72 h (n=6) and, for Csf1r, after 1 h (n=3), 4 h (n=7), 8 h (n=3) and 24 h (n=3) of treatment with the small molecules in URE−/− cells, expression is normalized to GAPDH expression. Data represent means±SD of technical triplicate from one representative experiment; fold change compared to Vehicle is shown. (B) Chromatin immunoprecipitation assay showing PU.1 occupancy on E2f1, Junb, Csf1r promoters after treatment in Umsh cell line (n=5). 10·10^6 cells were collected for each condition after 8 h treatment with a double dose of the small molecules (50 uM for DB1976, 1.4 uM for DB2115 and 660 nM for DB2313) or Vehicle; and processed for ChIP using PU.1 monoclonal antibody. Myogenin was used as a negative control, not regulated by PU.1. Data represent means±SD of technical triplicate from one representative experiment. (C) Cell viability after PU.1 rescue in MOLM13 cells. MOLM13 were transduced with a lentiviral construct expressing either PU.1-GFP (PU.1, black bar) or GFP as a control (empty, white bar), sorted on GFP and plated with DB1976 (n=7), DB2115 (n=8), DB2313 (n=6) or Vehicle. Cell count was performed after 4 days. Data represent means±SD of technical triplicate from one representative experiment; fold change compared to Vehicle is shown. (D-G) Transcriptome analysis of URE−/− cells after 24 h of treatment with DB2313 versus vehicle (n=3). Differentially expressed genes were determined with a fold change at 1.2 and a P value <0.1. (D) Enrichment in genes directly regulated by PU.1 or in genes regulated by the other ETS transcription factors Ets1, Gabpa, Spi-B, Fli-1, using Ingenuity Knowledge Base. The red dotted line represents the significance threshold (−log (P value)>1.3). (E,F) Comparison analysis of deregulated genes in URE−/− cells after DB2313 treatment and in PUER cells after PU.1 induction (GSE13125). Deregulated gens in PUER cells were analyzed with a FC at 1.5 and P-value <0.05. (E) Significant overlap between the 2 datasets, with 484 genes commonly deregulated. P-value was calculated using the hypergeometric test. (F) Comparative analysis of deregulated canonical pathways between the 2 datasets (z-score >2 for PUER dataset). Colored squares indicate activation z-score. (G) Enrichment of PU.1 binding at promoters of all, up- and down-deregulated genes after DB2313 treatment. […]
To assess on-target activity of our inhibitors in AML cells, we measured transcript levels of well-known PU.1 targets in PU.1 URE^−/− AML cells. […] As Csf1r is one of the most sensitive PU.1 targets in myeloid cells, we assessed its expression at different time points (1 h, 4 h, 8 h and 24 h) after drug treatment. […]

[2] = second plating, vs replating with compound

Row | SMILES | toxicity on LSK cells (LSK cells; majority of colonies unidentifiable, majority of dead cells) | Csf1r, Junb, and PU.1 transcript expression [1] | E2f1 expression [1] | increase of production of mature granulocytes after removing the treatment (LSK cells; [2]) | increase of production of mature monocytes after removing the treatment (LSK cells; [2])
1 | N=C(N)c1ccc2nc(-c3ccc(-c4nc5ccc(C(=N)N)cc5[nH]4)[se]3)[nH]c2c1 [DB1976] | appeared to show toxicity | – | – | – | –
2 | N=C(N)c1ccc2nc(-c3ccc(OCCCCOc4ccc(-c5nc6ccc(C(=N)N)cc6[nH]5)cc4)cc3)[nH]c2c1 [DB2115] | – | decrease | increase | – | –
3 | CC(C)NC(=N)c1ccc2nc(-c3ccc(OCc4cccc(COc5ccc(-c6nc7ccc(C(=N)NC(C)C)cc7[nH]6)cc5)c4F)cc3)[nH]c2c1 [DB2313, 3-Bis{4[4(5)-N-isopropylamidinobenzimidazolyl]phenoxymethyl]}-2-fluorobenzene tetrahydrochloride] | – | decrease | increase | 4 fold | 22 fold
